Measured values from publication PMC7736868, “Fluorescent ligands for dopamine D2/D3 receptors” (Scientific Reports, 2020).
Where two headings read alike, the source gives them in different places.

Experiments:
porcine D1R = target: T1, porcine D1R (Sus scrofa, UniProt P50130); assay: Radioligand competition, [3H]SCH23390, porcine striatum homogenates; assay type: binding; conditions: [3H]SCH23,390; mean of n experiments; read-out: Ki pD1R
T1 construct: homogenates obtained from porcine striatum; from tissue; host or cells: porcine striatum homogenate
T1 sequence (P50130 whole entry): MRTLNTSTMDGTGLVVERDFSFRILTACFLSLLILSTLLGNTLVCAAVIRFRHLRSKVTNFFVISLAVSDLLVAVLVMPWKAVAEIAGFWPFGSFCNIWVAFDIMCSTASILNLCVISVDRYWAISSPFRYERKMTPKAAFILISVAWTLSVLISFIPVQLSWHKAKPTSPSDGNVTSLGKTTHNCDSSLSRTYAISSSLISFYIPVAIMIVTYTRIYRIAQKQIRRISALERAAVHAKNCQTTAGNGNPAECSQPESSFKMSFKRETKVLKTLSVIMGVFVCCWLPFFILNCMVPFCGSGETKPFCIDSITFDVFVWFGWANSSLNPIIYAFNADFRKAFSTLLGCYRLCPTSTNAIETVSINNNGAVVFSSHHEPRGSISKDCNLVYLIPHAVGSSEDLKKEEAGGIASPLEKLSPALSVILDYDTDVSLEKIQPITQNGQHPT

porcine 5-HT1AR = target: T2, porcine 5-HT1AR (Sus scrofa, UniProt A0A4X1UTF5); assay: Radioligand competition, [3H]WAY100,635, porcine cerebral cortex homogenates; assay type: binding; conditions: mean of n experiments, read-out: Ki p5-HT1AR
T2 construct: homogenates of porcine cerebral cortex; from tissue; host or cells: porcine cerebral cortex homogenate
T2 sequence (A0A4X1UTF5 1-422): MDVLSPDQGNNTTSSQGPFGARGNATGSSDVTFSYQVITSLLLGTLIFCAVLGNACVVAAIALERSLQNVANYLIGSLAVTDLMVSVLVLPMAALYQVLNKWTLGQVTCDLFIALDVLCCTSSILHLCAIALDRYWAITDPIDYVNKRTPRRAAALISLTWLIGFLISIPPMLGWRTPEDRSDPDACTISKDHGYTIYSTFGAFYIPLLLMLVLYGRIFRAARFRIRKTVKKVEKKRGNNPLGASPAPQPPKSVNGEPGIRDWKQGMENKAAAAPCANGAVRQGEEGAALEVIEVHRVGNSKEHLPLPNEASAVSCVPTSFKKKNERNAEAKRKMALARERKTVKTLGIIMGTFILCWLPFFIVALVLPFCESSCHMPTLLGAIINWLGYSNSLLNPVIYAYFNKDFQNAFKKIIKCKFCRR

porcine 5-HT2R = target: T3, porcine 5-HT2R (Sus scrofa, UniProt P50129); assay: Radioligand competition, [3H]ketanserin, porcine cerebral cortex homogenates; assay type: binding; conditions: mean of n experiments, read-out: Ki p5-HT2R
T3 construct: homogenates of porcine cerebral cortex; from tissue; host or cells: porcine cerebral cortex homogenate
T3 sequence (P50129 whole entry): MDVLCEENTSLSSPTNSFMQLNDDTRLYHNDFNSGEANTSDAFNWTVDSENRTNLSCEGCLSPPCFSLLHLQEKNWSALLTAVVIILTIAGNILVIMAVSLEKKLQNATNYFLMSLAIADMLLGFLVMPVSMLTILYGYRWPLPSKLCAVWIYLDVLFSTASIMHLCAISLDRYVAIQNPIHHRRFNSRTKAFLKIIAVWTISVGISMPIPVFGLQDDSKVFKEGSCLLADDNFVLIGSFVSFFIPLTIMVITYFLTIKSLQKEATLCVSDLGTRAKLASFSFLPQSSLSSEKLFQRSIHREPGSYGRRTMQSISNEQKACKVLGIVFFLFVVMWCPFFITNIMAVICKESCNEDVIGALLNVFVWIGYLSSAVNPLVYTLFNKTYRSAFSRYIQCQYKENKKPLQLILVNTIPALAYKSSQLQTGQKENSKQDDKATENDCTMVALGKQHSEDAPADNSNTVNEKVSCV

human D2LR = human D2LR (Homo sapiens, UniProt P14416); assay: Radioligand competition, [3H]spiperone, CHO cell membranes
human D2LR, sequence (P14416 whole entry): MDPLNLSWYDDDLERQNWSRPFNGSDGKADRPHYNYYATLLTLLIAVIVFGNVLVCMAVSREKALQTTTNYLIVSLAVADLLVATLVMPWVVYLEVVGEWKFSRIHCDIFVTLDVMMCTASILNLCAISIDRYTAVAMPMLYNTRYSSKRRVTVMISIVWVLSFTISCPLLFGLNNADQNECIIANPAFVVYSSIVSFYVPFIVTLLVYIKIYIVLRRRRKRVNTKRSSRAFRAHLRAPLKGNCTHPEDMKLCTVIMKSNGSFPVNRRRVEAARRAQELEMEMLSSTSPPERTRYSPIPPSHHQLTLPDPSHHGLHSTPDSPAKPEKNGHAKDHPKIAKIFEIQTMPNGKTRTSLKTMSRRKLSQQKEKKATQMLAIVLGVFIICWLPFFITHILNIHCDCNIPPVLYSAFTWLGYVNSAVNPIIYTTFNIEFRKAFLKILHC

D2SR [1] = target: T4, D2SR (Homo sapiens, UniProt P14416); assay: as above
T4 sequence (P14416 1-414 isoform P14416-2): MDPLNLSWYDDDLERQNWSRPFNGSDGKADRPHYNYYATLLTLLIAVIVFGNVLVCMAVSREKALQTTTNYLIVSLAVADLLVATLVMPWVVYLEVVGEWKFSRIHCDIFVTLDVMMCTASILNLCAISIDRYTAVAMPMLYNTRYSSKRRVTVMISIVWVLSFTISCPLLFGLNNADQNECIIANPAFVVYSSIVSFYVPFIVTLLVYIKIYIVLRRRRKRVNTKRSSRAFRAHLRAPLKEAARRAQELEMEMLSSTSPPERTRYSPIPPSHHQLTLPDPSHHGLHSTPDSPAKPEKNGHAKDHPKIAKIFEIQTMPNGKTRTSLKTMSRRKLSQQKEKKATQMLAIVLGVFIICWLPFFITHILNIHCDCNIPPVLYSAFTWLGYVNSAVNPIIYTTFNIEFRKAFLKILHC

human D3R = human D3R (Homo sapiens, UniProt P35462); assay: as above
human D3R, sequence (P35462 whole entry): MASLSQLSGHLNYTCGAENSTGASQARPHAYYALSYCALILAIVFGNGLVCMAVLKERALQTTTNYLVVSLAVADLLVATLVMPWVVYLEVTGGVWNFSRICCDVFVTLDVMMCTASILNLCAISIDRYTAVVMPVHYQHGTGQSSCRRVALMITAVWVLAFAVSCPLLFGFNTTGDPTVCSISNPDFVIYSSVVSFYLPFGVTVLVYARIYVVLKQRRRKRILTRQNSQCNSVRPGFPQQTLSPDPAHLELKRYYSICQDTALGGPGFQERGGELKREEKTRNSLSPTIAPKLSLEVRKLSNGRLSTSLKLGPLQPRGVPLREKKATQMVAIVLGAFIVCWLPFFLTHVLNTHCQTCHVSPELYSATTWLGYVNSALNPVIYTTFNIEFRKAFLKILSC

human D4R = target: T5, human D4R (Homo sapiens, UniProt P21917); assay: as above
T5 sequence (P21917 1-419): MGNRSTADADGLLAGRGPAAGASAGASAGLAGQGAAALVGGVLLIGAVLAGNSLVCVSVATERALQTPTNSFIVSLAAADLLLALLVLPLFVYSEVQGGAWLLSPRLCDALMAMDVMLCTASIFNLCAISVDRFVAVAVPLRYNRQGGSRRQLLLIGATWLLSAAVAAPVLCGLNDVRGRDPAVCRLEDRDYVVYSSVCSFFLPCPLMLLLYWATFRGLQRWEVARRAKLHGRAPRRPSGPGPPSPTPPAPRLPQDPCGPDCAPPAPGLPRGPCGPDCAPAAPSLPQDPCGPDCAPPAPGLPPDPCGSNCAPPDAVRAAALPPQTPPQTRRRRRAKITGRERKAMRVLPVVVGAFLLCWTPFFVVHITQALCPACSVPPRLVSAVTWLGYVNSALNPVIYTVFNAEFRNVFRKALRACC

porcine α1-AR = assay: Radioligand competition, [3H]prazosin, porcine cerebral cortex homogenates; conditions: read-out: Ki pα1-AR, mean of n experiments
D2SR [2] = target: T4, D2SR; assay: β-arrestin-2 recruitment (Pathhunter, DiscoverX), HEK293 cells, GRK2 coexpressed; assay type: cell-based; design: expressed in transfected cells; conditions: for Emax: read-out: Emax β-arrestin-2 recruitment at D2SR, reference agonist quinpirole
human isoform of D1R = human isoform of D1R (Homo sapiens, UniProt P21728); assay: Radioligand competition at human isoform of D1R; assay type: binding; conditions: assay performed with human isoform of D1R; [3H]SCH23,390 column
human isoform of D1R, sequence (P21728 whole entry, canonical isoform): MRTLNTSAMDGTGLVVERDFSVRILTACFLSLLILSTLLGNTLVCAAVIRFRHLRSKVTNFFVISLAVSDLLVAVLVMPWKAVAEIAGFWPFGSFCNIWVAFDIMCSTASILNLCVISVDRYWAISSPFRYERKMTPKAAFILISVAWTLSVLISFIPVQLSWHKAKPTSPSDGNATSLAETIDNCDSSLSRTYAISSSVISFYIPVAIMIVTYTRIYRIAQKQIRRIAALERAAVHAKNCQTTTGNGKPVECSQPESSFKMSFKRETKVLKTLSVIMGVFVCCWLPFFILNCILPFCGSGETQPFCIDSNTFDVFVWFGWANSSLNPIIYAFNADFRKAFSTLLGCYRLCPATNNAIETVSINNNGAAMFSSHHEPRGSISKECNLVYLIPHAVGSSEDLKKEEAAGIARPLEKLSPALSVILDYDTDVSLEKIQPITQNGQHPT
Procedure: Supplementary Table S1. Binding affinities of the test compounds. Binding affinities of the test compounds for porcine D1R, 5-HT 1AR, 5-HT 2R and α1-AR were determined by radioligand […]
a Data are indicated as m ean (and range) of (n) individual experim ents, each per form ed in triplicate; b assay perform ed with hum an isoform of D1R; c n. d. K i not determ ined as no com plete ligand displacem ent occurred;

secNluc-D3R = secNluc-D3R (UniProt P35462+Q9GV45, A31E/A60N/A81I/F95D/I117V/K70R/L54V/L99Q/M102K/N193R/P142E/Q151K/Q38R/Q45L/V71I/Y165I); assay: NanoBRET association and dissociation kinetics, membranes; assay type: binding
secNluc-D3R, sequence (Q9GV45+P35462 fused with the stated changes): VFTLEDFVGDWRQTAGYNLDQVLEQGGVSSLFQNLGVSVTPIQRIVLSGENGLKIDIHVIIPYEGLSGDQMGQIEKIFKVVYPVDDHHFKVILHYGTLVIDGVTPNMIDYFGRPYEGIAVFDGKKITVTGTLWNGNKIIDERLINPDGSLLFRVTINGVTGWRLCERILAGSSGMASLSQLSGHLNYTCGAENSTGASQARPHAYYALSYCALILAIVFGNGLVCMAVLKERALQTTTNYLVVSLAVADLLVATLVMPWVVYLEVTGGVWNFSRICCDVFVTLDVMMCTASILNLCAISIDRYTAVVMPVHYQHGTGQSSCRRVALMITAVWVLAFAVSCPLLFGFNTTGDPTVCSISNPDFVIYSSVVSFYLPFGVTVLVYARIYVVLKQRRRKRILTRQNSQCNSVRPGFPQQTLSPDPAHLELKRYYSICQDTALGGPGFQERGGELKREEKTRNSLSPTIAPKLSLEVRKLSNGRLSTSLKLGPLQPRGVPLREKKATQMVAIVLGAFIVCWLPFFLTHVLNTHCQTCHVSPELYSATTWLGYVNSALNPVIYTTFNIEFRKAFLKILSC
Procedure: (a) Association of 10a at room temperature was measured by NanoBRET using secNluc-D3R membrane preparations and threefold serial dilutions of 10a (3.3–30 nM). […] Obtained IC50 values were transformed into Ki values applying the equation of Cheng and Prusoff[52]. […] Kinetic assays were monitored at room temperature and minimal possible cycle time of the CLARIOstar was used for each measurement. Data was fitted to one phase association and dissociation equations in PRISM6.0 to determine the kinetic constants. […] Addition of furimazine (1:5,000) and BRET measurements were carried out as described above. Data analysis was performed using the one site—fit Ki equation in PRISM6.0 to determine the inhibition constants (Ki) of the unlabeled ligands.

[3] = read-out: EC50 β-arrestin-2 recruitment at D2SR, mean ± SEM
[4] = read-out: Ki hD2LR, [3H]spiperone, mean ± SEM
[5] = read-out: Ki hD2SR, [3H]spiperone, mean ± SEM
[6] = read-out: Ki hD3R, [3H]spiperone, mean ± SEM
[7] = read-out: Ki hD4R, [3H]spiperone, mean ± SEM

| Compound | Ki (porcine D1R) | Ki (porcine 5-HT1AR) | Ki (porcine 5-HT2R) | Ki (human D2LR) | Ki (D2SR [1]) | Ki (human D3R) | Ki (human D4R) | Ki (porcine α1-AR) | also measured |
| --- | --- | --- | --- | --- | --- | --- | --- | --- | --- |
| CCCN(CCCCc1cn(-c2ccc(C#N)cc2)nn1)C1Cc2ccccc2C1 [2a] | 3000 nM | 52 nM | 850 nM | 8.7 ± 2.5 nM | 6.5 ± 1.7 nM | 0.41 ± 0.09 nM | 33 ± 7 nM | 87 nM |  |
| N#Cc1ccc(-n2cc(CCCCN3CCN(c4cccc(Cl)c4Cl)CC3)nn2)cc1 [2b] | 540 nM | 260 nM | 1100 nM | 15 ± 5 nM | 6.3 ± 0.2 nM | 1 ± 0.2 nM | 120 ± 61 nM | 4.9 nM |  |
| COc1ccccc1N1CCN(CCCCc2cn(-c3ccc(C#N)cc3)nn2)CC1 [2c] | 1100 nM | 25 nM | 600 nM | 77 ± 17 nM | 34 ± 8 nM | 13 ± 4 nM | 140 ± 10 nM | 2.4 nM |  |
| CC(C)(C)c1nc(N2CCN(CCCCc3cn(-c4ccc(C#N)cc4)nn3)CC2)cc(C(F)(F)F)n1 [2d] | 5500 nM | 4100 nM | 4400 nM | 360 ± 60 nM | 350 ± 30 nM | 9.5 ± 1.9 nM | 5000 nM | 1100 nM |  |
| CCCN(CCCCc1cn(-c2ccc(CNS(=O)(=O)c3cccc4c(N(C)C)cccc34)cc2)nn1)C1Cc2ccccc2C1 [4a] | 590 nM | 27 nM | 220 nM | 5.2 ± 0.6 nM | 1.7 ± 0.3 nM | 0.29 ± 0.02 nM | 27 ± 3 nM | 29 nM |  |
| CN(C)c1cccc2c(S(=O)(=O)NCc3ccc(-n4cc(CCCCN5CCN(c6cccc(Cl)c6Cl)CC5)nn4)cc3)cccc12 [4b] | 190 nM | 78 nM | 390 nM | 20 ± 8 nM | 5.1 ± 1.7 nM | 1.9 ± 0.7 nM | 59 ± 20 nM | 7.9 nM |  |
| COc1ccccc1N1CCN(CCCCc2cn(-c3ccc(CNS(=O)(=O)c4cccc5c(N(C)C)cccc45)cc3)nn2)CC1 [4c] | 180 nM | 55 nM | 450 nM | 17 ± 7 nM | 8.4 ± 3.4 nM | 6.5 ± 2.3 nM | 32 ± 6 nM | 1.1 nM |  |
| CN(C)c1cccc2c(S(=O)(=O)NCc3ccc(-n4cc(CCCCN5CCN(c6cc(C(F)(F)F)nc(C(C)(C)C)n6)CC5)nn4)cc3)cccc12 [4d] | > 10000 nM | > 10000 nM | > 10000 nM | 7600 nM | 6000 nM | 11 ± 2 nM | > 10000 nM | 3000 nM | decrease of D2LR affinity by introduction of the dansyl moiety (factor) (human D2LR; 4d versus 2d): ~ 20; decrease of D2SR affinity by introduction of the dansyl moiety (factor) (D2SR [1]; 4d versus 2d): ~ 20 |
| CCCN(CCCCc1cn(-c2ccc(C(=O)NCCCN)cc2)nn1)C1Cc2ccccc2C1 [7a] | 3600 nM | 13 nM | 400 nM | 3.5 ± 0.4 nM | 1.8 ± 0.2 nM | 0.26 ± 0.03 nM | 8.5 ± 0.8 nM | 37 nM |  |
| CCCN(CCCCc1cn(-c2ccc(C(=O)NCCCNS(=O)(=O)c3cccc4c(N(C)C)cccc34)cc2)nn1)C1Cc2ccccc2C1 [8a] | 1100 nM | 70 nM | 690 nM | 1.2 ± 0.2 nM | 0.44 ± 0.12 nM | 0.32 ± 0.05 nM | 10 ± 4 nM | 22 nM | EC50 (D2SR [2]; mean ± SEM): 51 ± 11 nM; Emax (D2SR [2]): 98 ± 2% |
| CN(C)c1cccc2c(S(=O)(=O)NCCCNC(=O)c3ccc(-n4cc(CCCCN5CCN(c6cccc(Cl)c6Cl)CC5)nn4)cc3)cccc12 [8b] | 340 nM | 170 nM | 380 nM | 13 ± 6 nM | 3.6 ± 1.6 nM | 1.9 ± 0.9 nM | 130 ± 10 nM | 23 nM |  |
| CCCN(CCCCc1cn(-c2ccc(CNC(=O)c3ccc(-c4c5ccc(=NCC(F)(F)F)cc-5oc5cc(NCC(F)(F)F)ccc45)c(C(=O)O)c3)cc2)nn1)C1Cc2ccccc2C1 [10a] |  |  |  | 46 ± 7 nM | 21 ± 4 nM | 0.97 ± 0.23 nM | 56 ± 4 nM | 100 nM | Ki (human isoform of D1R): 310 nM; koff (secNluc-D3R): 0.0009 s⁻¹; residence time (secNluc-D3R): 19 ± 1 min; kon (secNluc-D3R; read-out: Kon association rate constant): 170000 M⁻¹ s⁻¹; EC50 (D2SR [2]; mean ± SEM): 410 ± 70 nM; Emax (D2SR [2]): 89 ± 3% |
| CCCN(CCCCc1cn(-c2ccc(C(=O)NCCCNC(=O)Cc3ccc4c(c3)C(C)(C)C3=C5C=C6C7=[N+](CCC6OC5CCN34)c3ccc(S(=O)(=O)[O-])cc3C7(C)C)cc2)nn1)C1Cc2ccccc2C1 (stereo not drawn) [10b] | 5100 nM | 120 nM | 330 nM |  |  |  |  | 87 nM | EC50 (D2SR [2]; [3]): 410 ± 60 nM; Emax (D2SR [2]): 79 ± 3%; Ki (human D2LR; [4]): 10 ± 2 nM; Ki (D2SR [1]; [5]): 4.8 ± 1 nM; Ki (human D3R; [6]): 0.9 ± 0.26 nM; Ki (human D4R; [7]): 50 ± 7 nM |
| CCCN(CCCCc1cn(-c2ccc(C(=O)NCCCNC(=O)c3ccc(-c4c5ccc(=N)c(S(=O)(=O)O)c-5oc5c(S(=O)(=O)O)c(N)ccc45)c(C(=O)O)c3)cc2)nn1)C1Cc2ccccc2C1 [10c] | 5100 nM | 85 nM | 2200 nM |  |  |  |  | 150 nM | EC50 (D2SR [2]; [3]): 100 ± 20 nM; Emax (D2SR [2]): 93 ± 3%; Ki (human D2LR; [4]): 23 ± 5 nM; Ki (D2SR [1]; [5]): 15 ± 4 nM; Ki (human D3R; [6]): 0.76 ± 0.11 nM; Ki (human D4R; [7]): 47 ± 9 nM |
